# In publication PMC7763418 (Journal of the American Heart Association: Cardiovascular …, 2020):
# Experiments:
# [1] = tested on: healthy male participants; experiment: Relative stroke volume; format: in vivo, human; details: esmolol 1.25 mg/kg bolus+[…] iv
# [2] = tested on: healthy male participants; experiment: Heart rate, arterial line/ECG recording; format: in vivo, human; details: days B and C, after 15 min of esmolol 1.25 mg/kg bolus+[…] iv
# [3] = tested on: cardiac beta 1 receptors; details: esmolol dose used (1.25 mg/kg bolus+[…]); cited from earlier work
smiles,measurement,setting,value
COC(=O)CCc1ccc(OCC(O)CNC(C)C)cc1 (stereo not shown) [esmolol],Reduction of mean stroke volume from −15 minutes to baseline,[1]; day B,13.7%
same,Reduction of mean stroke volume from −15 minutes to baseline,"[1]; day C, before glucagon",25.8%
same,Average heart rate at baseline (0 min),[2],58.2 bpm
same,Cardiac beta 1 receptors blocked,[3],> 85%
